A word on the MIC: it is the smallest concentration in the dilution series that meets the test's criterion for growth inhibition. The low end stands for greater potency, the high end for weaker potency.

The text below walks through data of DBAASP.

Molecules are shown by their SMILES. ≈ marks a conversion by molar mass, not a printed value. Where only a bound is given, the exact number is not on record here.

Assay in all cases: ≥ marks a high value that may be exact or a test limit, other limits are often not marked, values filed in µg/mL are converted to µM
The subject of test [1] is Candida albicans ATCC 10231.
Test [2] has as its system Staphylococcus capitis 1.
The subject of test [3] is Staphylococcus aureus Cowan 1.
Test [4] has as its system Escherichia coli ATCC 25922.
For test [5], the system named is Yersinia pseudotuberculosis YPIII.
In test [6] the test system is Bacillus megaterium Bm11.
For test [7], the system named is Botrytis cinerea.
Test [8] has as its system Escherichia coli ATCC 11775.
The test system of test [9] is Staphylococcus aureus ATCC 12600.
Test [10] relates to Pseudomonas aeruginosa PAO1.
Test [11] has as its system Pseudomonas aeruginosa 910.
Test [12] relates to Pseudomonas aeruginosa 253.
For test [13], the system named is Pseudomonas aeruginosa 919.
Test [14] has as its system Staphylococcus aureus KCTC 1621.
The subject of test [15] is Enterococcus faecalis ATCC 29212.
Test [16] has as its system Bacillus subtilis CMCC 63501.
Test [17] relates to Staphylococcus aureus ATCC 29213.
For test [18], the system named is Escherichia coli DH5alpha.
The subject of test [19] is Candida parapsilosis.
The test system of test [20] is Staphylococcus epidermidis ATCC 12228.
Test [21] has as its system Pseudomonas aeruginosa KCTC 1637.
Test [22] has as its system Staphylococcus epidermidis KCTC 1917.
Test [23] concerns Bacillus subtilis KCTC 3068.
Test [24] relates to Salmonella enterica subsp. enterica serovar Typhimurium ATCC 14028.
For test [25], the system named is Pseudomonas aeruginosa ATCC 27853.
Test [26] deals with Salmonella typhimurium KCTC 1926.
Test [27] relates to Escherichia coli UB1005.
In test [28] the test system is Escherichia coli K-12.
Test [29] deals with Escherichia coli KCTC 1682.
The test system of test [30] is Salmonella typhimurium ATCC 7731.
For test [31], the system named is Bacillus subtilis ATCC 6633.
In test [32] the test system is Escherichia coli ATCC 10536.
Test [33] has as its system Staphylococcus aureus ATCC 9144.
Test [34] relates to Escherichia coli JM109.
For test [35], the system named is Staphylococcus aureus.
The test system of test [36] is Staphylococcus aureus ATCC 6538P.

As to `CC[C@H](C)[C@H](NC(=O)CNC(=O)[C@H](CO)NC(=O)[C@H](CC(C)C)NC(=O)[C@@H](NC(=O)[C@H](CCCN=C(N)N)NC(=O)CNC(=O)[C@@H](NC(=O)[C@H](CC(C)C)NC(=O)[C@@H]1CCCN1C(=O)[C@H](C)NC(=O)[C@@H](N)Cc1ccccc1)[C@@H](C)CC)C(C)C)C(=O)N[C@@H](CC(C)C)C(N)=O` [FAPLIGRVLSGIL], the MIC in test [1] was 10 µM (≈ 13.5 µg/mL); in test [2] it was 20 µM (≈ 27.1 µg/mL); in test [3], 20 µM (≈ 27.1 µg/mL); in [4] it was above 40 µM; in [5] it was at least 40 µM; in test [6] it was 5 µM (≈ 6.77 µg/mL).

In the case of `CC[C@H](C)[C@H](NC(=O)CNC(=O)[C@H](CO)NC(=O)[C@H](CC(C)C)NC(=O)[C@H](CC(C)C)NC(=O)CNC(=O)[C@@H](NC(=O)[C@@H](NC(=O)[C@@H]1CCCN1C(=O)CNC(=O)[C@@H](N)Cc1ccccc1)C(C)C)[C@@H](C)CC)C(=O)N[C@@H](CC(C)C)C(=O)N[C@@H](CCCCN)C(=O)N[C@@H](CO)C(=O)N[C@@H](CC(C)C)C(=O)N[C@@H](CC(C)C)C(=O)O` [FGPVIGLLSGILKSLL], the MIC in [7] is 5 µM (≈ 8.14 µg/mL); in test [1], above 200 µM; in test [8] it was at least 200 µM; in test [9], at least 50 µM.

As for `CC[C@H](C)[C@H](NC(=O)[C@@H](N)Cc1ccccc1)C(=O)N[C@@H](CCCCN)C(=O)N[C@@H](Cc1c[nH]c2ccccc12)C(=O)N[C@@H](CCCCN)C(=O)N[C@@H](Cc1ccccc1)C(=O)N[C@@H](CCCN=C(N)N)C(=O)N1CCC[C@H]1C(=O)N[C@@H](Cc1c[nH]c2ccccc12)C(=O)N[C@@H](CCCCN)C(=O)N[C@@H](CCCCN)C(=O)N[C@@H](CCCN=C(N)N)C(=O)N[C@H](C(N)=O)[C@@H](C)O` [FIKWKFRPWKKRT], the MIC is 4 µM (≈ 7.28 µg/mL) in [10], 8 µM (≈ 14.6 µg/mL) in test [11], 16 µM (≈ 29.1 µg/mL) in test [12] and 22.6 µM (≈ 41.2 µg/mL) in test [13].

Consider `CC[C@H](C)[C@H](NC(=O)[C@H](CCCN=C(N)N)NC(=O)[C@H](CCC(N)=O)NC(=O)[C@@H](NC(=O)[C@@H](NC(=O)[C@H](CCCN=C(N)N)NC(=O)[C@H](CCCCN)NC(=O)[C@@H](N)Cc1ccccc1)[C@@H](C)CC)C(C)C)C(=O)N[C@@H](CCCCN)C(=O)N[C@@H](CC(=O)O)C(=O)N[C@@H](Cc1ccccc1)C(=O)N[C@@H](CC(C)C)C(=O)N[C@@H](CCCN=C(N)N)C(N)=O` [FKRIVQRIKDFLR], for which the MIC in test [14] was 16 µM (≈ 27.5 µg/mL); in test [15], 32 µM (≈ 55 µg/mL); in test [16] it was 16 µM (≈ 27.5 µg/mL); in test [10], 16 µM (≈ 27.5 µg/mL); in test [17], 16 µM (≈ 27.5 µg/mL); in test [18], at least 116 µM. In addition, the MIC is at least 116 µM in test [19]; 16 µM (≈ 27.5 µg/mL) in test [4]; 8 µM (≈ 13.7 µg/mL) in test [20]; at least 32 µM in test [21]; 16 µM (≈ 27.5 µg/mL) in [22]; 4 µM (≈ 6.87 µg/mL) in test [23]. Also, the MIC in [24] was 32 µM (≈ 55 µg/mL); in [25] it was 8 µM (≈ 13.7 µg/mL); in test [26], 16 µM (≈ 27.5 µg/mL); in test [27] it was 16 µM (≈ 27.5 µg/mL); in test [28] it was at least 40 µM; in test [29], 16 µM (≈ 27.5 µg/mL). Also, in test [30], the MIC was 16 µM (≈ 27.5 µg/mL).

As to `CC[C@H](C)[C@H](NC(=O)[C@H](C)NC(=O)[C@H](CO)NC(=O)[C@H](CC(C)C)NC(=O)[C@@H](NC(=O)[C@H](CCCN=C(N)N)NC(=O)CNC(=O)[C@@H](NC(=O)[C@H](CC(C)C)NC(=O)[C@@H]1CCCN1C(=O)[C@H](CC(C)C)NC(=O)[C@@H](N)Cc1ccccc1)[C@@H](C)CC)C(C)C)C(=O)N[C@@H](CC(C)C)C(N)=O` [FLPLIGRVLSAIL], the MIC was 2.5 µM (≈ 3.53 µg/mL) in [1]; 5 µM (≈ 7.05 µg/mL) in test [2]; 2.5 µM (≈ 3.53 µg/mL) in test [3]; above 40 µM in test [4]; 20 µM (≈ 28.2 µg/mL) in [5]; 2.5 µM (≈ 3.53 µg/mL) in [6].

Turning to `CC[C@H](C)[C@H](NC(=O)CN)C(=O)NCC(=O)N[C@@H](C)C(=O)N[C@H](C(=O)N[C@@H](CC(C)C)C(=O)N[C@@H](CCCCN)C(=O)N[C@H](C(=O)N[C@@H](C)C(=O)N[C@H](C(=O)N[C@H](C(=O)NCC(=O)N[C@@H](CC(C)C)C(=O)N1CCC[C@H]1C(=O)N[C@@H](C)C(=O)N[C@@H](CC(C)C)C(=O)N[C@H](C(=O)N[C@@H](CO)C(=O)N[C@@H](Cc1c[nH]c2ccccc12)C(=O)N[C@H](C(=O)N[C@@H](CCCCN)C(=O)N[C@@H](CCCN=C(N)N)C(=O)N[C@@H](CCCCN)C(=O)N[C@@H](CCCN=C(N)N)C(=O)N[C@@H](CCC(N)=O)C(=O)N[C@@H](CCC(N)=O)C(N)=O)[C@@H](C)CC)[C@@H](C)CC)[C@@H](C)O)[C@@H](C)O)C(C)C)C(C)C` [GIGAVLKVATTGLPALISWIKRKRQQ], the minimal inhibitory concentration (MIC) in [31] came out at 2.4 µM (≈ 6.73 µg/mL); in test [32] it was 3.2 µM (≈ 8.97 µg/mL); in test [33], 3.6 µM (≈ 10.1 µg/mL); in [18], 4.3 µM (≈ 12.1 µg/mL).

The compound `CC[C@H](C)[C@H](N)C(=O)N[C@@H](CC(C)C)C(=O)N1CCC[C@H]1C(=O)N[C@@H](Cc1c[nH]c2ccccc12)C(=O)N[C@@H](CCCCN)C(=O)N[C@@H](Cc1c[nH]c2ccccc12)C(=O)N[C@@H](CCCCN)C(=O)N[C@@H](Cc1ccccc1)C(=O)N[C@@H](Cc1ccccc1)C(=O)N1CCC[C@H]1C(=O)N[C@@H](Cc1c[nH]c2ccccc12)C(=O)N[C@@H](CCCN=C(N)N)C(=O)N[C@@H](CCCN=C(N)N)C(N)=O` [ILPWKWKFFPWRR] had an MIC in [34] of 1 µM (≈ 1.86 µg/mL).

Regarding `CC[C@H](C)[C@H](NC(=O)[C@H](C)NC(=O)[C@H](CC(C)C)NC(=O)[C@H](CS)NC(=O)[C@H](Cc1cnc[nH]1)NC(=O)[C@H](C)NC(=O)[C@H](C)NC(=O)[C@H](CS)NC(=O)[C@@H](N)CC(C)C)C(=O)NCC(=O)N[C@@H](CCCN=C(N)N)C(=O)N[C@@H](CCCN=C(N)N)C(N)=O` [LCAAHCLAIGRR], the MIC was above 49.9 µM in test [35], at least 37.4 µM in test [34] and 14 µM in [36].

Take `CC[C@H](C)[C@H](NC(=O)[C@H](CCCCN)NC(=O)[C@H](CCCN=C(N)N)NC(=O)[C@H](Cc1c[nH]c2ccccc12)NC(=O)[C@H](Cc1c[nH]c2ccccc12)NC(=O)[C@@H](N)CCCN=C(N)N)C(=O)N[C@@H](Cc1c[nH]c2ccccc12)C(=O)N[C@@H](CCCCN)C(=O)N[C@@H](Cc1c[nH]c2ccccc12)C(N)=O` [RWWRKIWKW]: the MIC was determined as 2 µM (≈ 2.89 µg/mL) in [10], 8 µM (≈ 11.6 µg/mL) in test [11], 8 µM (≈ 11.6 µg/mL) in test [12] and 2.83 µM (≈ 4.08 µg/mL) in test [13].
